These results are taken from publication PMC4546632, “Active Transport of Phosphorylated Carbohydrates Promotes Intestinal Colonization and Transmission of a Bacterial Pathogen” (PLoS Pathogens, 2015).

In general, Kd refers to the equilibrium constant for the complex coming apart.

Read-outs that look alike come from different tables or passages of the source.

Common to all, as to details: 20 mM Tris pH 8, 100 mM NaCl
The target in test [1] is T1, AfuA (Actinobacillus pleuropneumoniae, UniProt A3N294).
T1 construct: pET26b, periplasmic expression in E. coli (osmotic shock), N-terminal 6xHis tag cleaved by thrombin
As to the kind of experiment: isothermal titration calorimetry. The class given is binding. The text has this:
isothermal titration calorimetry on AfuA

For test [2], the target named is AfuA (Actinobacillus pleuropneumoniae, UniProt A3N294, T177A).
Test [3] has as its target AfuA (Actinobacillus pleuropneumoniae, UniProt A3N294, S64D).
Test [4] concerns the target T2, C. rodentium AfuA (Citrobacter rodentium, UniProt D2TKU7).
T2 construct: recombinant AfuA; construct details only in supplement
As to the kind of experiment: isothermal titration calorimetry. It counts as binding. From the text: isothermal titration calorimetry on C. rodentium AfuA | These amounts exceed the Kd of C. rodentium AfuA for G6P or F6P
On the technique in general: In ITC the heat of successive injections is recorded.

In test [5] the target is AfuA (Actinobacillus pleuropneumoniae, UniProt A3N294, S64A).
Sequence of AfuA (Actinobacillus pleuropneumoniae, UniProt A3N294, S64A) (A3N294 28-346 S64A): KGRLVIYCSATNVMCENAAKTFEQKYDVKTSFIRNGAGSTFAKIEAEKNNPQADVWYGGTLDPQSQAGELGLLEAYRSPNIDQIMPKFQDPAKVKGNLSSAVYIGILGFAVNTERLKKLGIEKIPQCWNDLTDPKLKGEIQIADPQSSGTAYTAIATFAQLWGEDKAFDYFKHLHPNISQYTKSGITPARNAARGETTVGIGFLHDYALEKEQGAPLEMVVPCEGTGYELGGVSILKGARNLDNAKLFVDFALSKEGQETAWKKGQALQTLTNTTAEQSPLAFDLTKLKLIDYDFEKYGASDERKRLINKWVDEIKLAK

T1 sequence (A3N294 entry or part of it): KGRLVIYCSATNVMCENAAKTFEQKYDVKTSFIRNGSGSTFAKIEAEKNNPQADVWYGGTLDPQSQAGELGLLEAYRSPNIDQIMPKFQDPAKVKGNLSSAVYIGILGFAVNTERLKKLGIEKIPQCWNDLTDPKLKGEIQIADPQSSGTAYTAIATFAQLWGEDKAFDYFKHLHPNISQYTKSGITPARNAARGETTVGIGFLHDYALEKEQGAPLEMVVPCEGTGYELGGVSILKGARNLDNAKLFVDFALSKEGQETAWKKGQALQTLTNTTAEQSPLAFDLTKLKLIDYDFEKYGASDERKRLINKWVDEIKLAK
Sequence of AfuA (Actinobacillus pleuropneumoniae, UniProt A3N294, T177A) (A3N294 28-346 T177A): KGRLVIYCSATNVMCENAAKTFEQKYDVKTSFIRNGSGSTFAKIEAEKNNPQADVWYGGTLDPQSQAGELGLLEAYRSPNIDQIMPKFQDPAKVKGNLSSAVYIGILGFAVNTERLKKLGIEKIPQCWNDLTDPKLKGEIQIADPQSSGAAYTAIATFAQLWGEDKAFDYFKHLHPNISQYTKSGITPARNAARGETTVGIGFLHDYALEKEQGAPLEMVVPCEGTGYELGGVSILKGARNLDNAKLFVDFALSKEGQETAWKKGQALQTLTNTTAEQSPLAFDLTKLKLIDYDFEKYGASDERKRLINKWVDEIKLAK
T2 sequence (D2TKU7 entry or part of it): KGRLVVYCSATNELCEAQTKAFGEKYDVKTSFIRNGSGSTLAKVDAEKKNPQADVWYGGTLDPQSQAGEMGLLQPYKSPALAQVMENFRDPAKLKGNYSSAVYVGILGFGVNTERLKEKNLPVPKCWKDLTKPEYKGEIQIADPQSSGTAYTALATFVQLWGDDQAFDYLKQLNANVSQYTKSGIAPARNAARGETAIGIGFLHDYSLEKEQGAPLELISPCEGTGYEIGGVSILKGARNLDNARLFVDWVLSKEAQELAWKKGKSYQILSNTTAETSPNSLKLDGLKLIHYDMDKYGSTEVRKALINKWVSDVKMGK
Sequence of AfuA (Actinobacillus pleuropneumoniae, UniProt A3N294, S64D) (A3N294 28-346 S64D): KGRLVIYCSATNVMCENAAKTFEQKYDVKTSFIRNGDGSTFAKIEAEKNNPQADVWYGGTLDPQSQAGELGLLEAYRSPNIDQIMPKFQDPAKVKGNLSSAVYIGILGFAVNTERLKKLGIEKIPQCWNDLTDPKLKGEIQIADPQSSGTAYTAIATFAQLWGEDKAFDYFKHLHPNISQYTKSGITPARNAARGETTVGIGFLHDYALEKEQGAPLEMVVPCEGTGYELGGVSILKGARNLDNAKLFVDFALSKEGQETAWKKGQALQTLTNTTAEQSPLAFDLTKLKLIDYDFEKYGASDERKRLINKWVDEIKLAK

As to `O=P(O)(O)OC[C@H]1OC(O)(CO)[C@@H](O)[C@@H]1O` (some centres unmarked) [Fructose-6-phosphate], the Kd in test [1] (read-out: Kd) stood at 8 ± 1 nM.
In the case of `O=P(O)(O)OC[C@H]1OC(O)[C@H](O)[C@@H](O)[C@@H]1O` (some centres unmarked) [Glucose-6-phosphate], the Kd came to 3300 ± 200 nM in test [2]; 5500 ± 900 nM in test [3]; 164 ± 94 nM in test [4]; 23 ± 4 nM in test [1] (read-out: Kd); 900 ± 100 nM in test [5].
On to `O=P(O)(O)OC[C@H]1OC(O)[C@@H](O)[C@@H](O)[C@@H]1O` (some centres unmarked) [Mannose-6-phosphate], for which the dissociation constant Kd in test [1] (read-out: Kd) stood at 960 ± 150 nM.
In test [1], `O=P(O)(O)OC[C@@H](O)[C@H]1OC(O)(CO)[C@@H](O)[C@@H]1O` (some centres unmarked) [Sedoheptulose-7-phosphate] registered a Kd of 57 ± 22 nM.
